This is an account of results in ChEMBL document CHEMBL5696441 (Nat Chem Biol, 2011).

The target in test [1] is T1, Serine/threonine-protein kinase Chk1 (Homo sapiens) (UniProt O14757).
T1 sequence (whole entry): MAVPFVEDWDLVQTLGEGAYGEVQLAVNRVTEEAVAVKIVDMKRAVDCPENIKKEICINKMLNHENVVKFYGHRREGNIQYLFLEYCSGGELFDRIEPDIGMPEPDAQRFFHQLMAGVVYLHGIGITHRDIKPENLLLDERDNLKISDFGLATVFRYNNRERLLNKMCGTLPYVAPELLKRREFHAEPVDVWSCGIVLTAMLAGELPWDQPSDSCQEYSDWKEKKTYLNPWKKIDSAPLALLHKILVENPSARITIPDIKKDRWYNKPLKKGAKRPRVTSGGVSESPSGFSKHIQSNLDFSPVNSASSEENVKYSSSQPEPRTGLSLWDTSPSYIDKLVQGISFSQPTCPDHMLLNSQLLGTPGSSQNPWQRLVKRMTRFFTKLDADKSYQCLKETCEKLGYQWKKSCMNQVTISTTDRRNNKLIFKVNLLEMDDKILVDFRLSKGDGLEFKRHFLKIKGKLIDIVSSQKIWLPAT
Briefly: Inhibition of CHEK1 (unknown origin) assessed as remaining activity at 1 uM by Kinome scan method relative to control.

The target in test [2] is Vascular endothelial growth factor receptor 1 (Homo sapiens) (UniProt P17948). Briefly: Inhibition of FLT1 (unknown origin) assessed as remaining activity at 1 uM by Kinome scan method relative to control.
Test [3] deals with T2, Myosin light chain kinase (Homo sapiens) (UniProt Q32MK0).
T2 sequence (whole entry): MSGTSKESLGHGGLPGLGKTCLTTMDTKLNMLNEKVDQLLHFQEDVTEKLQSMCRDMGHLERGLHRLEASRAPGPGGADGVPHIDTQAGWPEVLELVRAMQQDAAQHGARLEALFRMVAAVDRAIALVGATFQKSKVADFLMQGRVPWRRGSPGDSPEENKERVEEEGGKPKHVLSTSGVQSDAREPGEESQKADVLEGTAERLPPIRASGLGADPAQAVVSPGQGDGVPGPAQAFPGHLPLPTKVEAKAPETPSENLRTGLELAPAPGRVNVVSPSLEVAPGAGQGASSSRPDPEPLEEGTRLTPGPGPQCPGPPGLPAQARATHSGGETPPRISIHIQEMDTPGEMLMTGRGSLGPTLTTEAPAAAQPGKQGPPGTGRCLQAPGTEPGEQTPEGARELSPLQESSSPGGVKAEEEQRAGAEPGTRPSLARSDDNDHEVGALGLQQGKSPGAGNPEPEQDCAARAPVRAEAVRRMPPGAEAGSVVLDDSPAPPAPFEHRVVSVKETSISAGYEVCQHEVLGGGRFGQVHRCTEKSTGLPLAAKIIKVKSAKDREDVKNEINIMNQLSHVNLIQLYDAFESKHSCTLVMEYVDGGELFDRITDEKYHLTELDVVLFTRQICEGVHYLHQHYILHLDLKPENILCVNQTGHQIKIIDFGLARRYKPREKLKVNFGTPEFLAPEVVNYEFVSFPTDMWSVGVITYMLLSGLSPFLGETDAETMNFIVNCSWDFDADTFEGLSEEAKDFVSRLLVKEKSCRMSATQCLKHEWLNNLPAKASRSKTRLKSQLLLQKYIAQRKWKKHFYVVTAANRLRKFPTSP
Briefly: Inhibition of MLCK (unknown origin) assessed as remaining activity at 1 uM by Kinome scan method relative to control.

For test [4], the target named is Serine/threonine-protein kinase MARK1 (Homo sapiens) (UniProt Q9P0L2). As to the kind of experiment: Inhibition of MARK1 (unknown origin) assessed as remaining activity at 1 uM by Kinome scan method relative to control.
Test [5] concerns the target RAF proto-oncogene serine/threonine-protein kinase (Homo sapiens) (UniProt P04049). As to the kind of experiment: Inhibition of RAF1 (unknown origin) assessed as remaining activity at 1 uM by Kinome scan method relative to control.
In test [6] the target is Mitogen-activated protein kinase 14 (Homo sapiens) (UniProt Q16539). As to the kind of experiment: Inhibition of non-phosphorylated human N-terminal His-P38alpha overexpressed in Escherichia coli BL21 (DE3) assessed as remaining activity at 1 uM by Kinome scan method relative to control.
Test [7] deals with T3, Serine/threonine-protein kinase NLK (Homo sapiens) (UniProt Q9UBE8).
T3 sequence (whole entry): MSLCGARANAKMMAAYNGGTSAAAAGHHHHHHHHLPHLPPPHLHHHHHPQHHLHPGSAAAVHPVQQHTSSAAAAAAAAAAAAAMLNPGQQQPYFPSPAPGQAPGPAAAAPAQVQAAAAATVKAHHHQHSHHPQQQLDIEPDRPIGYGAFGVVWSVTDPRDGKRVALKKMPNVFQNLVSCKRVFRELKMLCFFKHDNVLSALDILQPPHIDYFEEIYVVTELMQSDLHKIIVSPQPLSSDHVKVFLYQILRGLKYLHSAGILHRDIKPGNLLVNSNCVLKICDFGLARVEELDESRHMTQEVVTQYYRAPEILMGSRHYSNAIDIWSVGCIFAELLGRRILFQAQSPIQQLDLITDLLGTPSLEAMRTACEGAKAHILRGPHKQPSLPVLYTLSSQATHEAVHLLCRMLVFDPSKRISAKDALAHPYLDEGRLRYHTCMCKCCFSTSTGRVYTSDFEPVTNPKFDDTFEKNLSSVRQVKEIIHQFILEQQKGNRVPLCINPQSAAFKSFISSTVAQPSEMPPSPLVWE
As to the kind of experiment: Inhibition of NLK (unknown origin) assessed as remaining activity at 1 uM by Kinome scan method relative to control.

Test [8] addresses Serine/threonine-protein kinase LATS1 (Homo sapiens) (UniProt O95835). As to the kind of experiment: Inhibition of LATS1 (unknown origin) assessed as remaining activity at 1 uM by Kinome scan method relative to control.
Test [9] has as its target Myosin light chain kinase family member 4 (Homo sapiens) (UniProt Q86YV6). Briefly: Inhibition of SgK085 (unknown origin) assessed as remaining activity at 1 uM by Kinome scan method relative to control.

Chain of Serine/threonine-protein kinase MARK1 (Homo sapiens) (Q9P0L2 whole entry, looked up): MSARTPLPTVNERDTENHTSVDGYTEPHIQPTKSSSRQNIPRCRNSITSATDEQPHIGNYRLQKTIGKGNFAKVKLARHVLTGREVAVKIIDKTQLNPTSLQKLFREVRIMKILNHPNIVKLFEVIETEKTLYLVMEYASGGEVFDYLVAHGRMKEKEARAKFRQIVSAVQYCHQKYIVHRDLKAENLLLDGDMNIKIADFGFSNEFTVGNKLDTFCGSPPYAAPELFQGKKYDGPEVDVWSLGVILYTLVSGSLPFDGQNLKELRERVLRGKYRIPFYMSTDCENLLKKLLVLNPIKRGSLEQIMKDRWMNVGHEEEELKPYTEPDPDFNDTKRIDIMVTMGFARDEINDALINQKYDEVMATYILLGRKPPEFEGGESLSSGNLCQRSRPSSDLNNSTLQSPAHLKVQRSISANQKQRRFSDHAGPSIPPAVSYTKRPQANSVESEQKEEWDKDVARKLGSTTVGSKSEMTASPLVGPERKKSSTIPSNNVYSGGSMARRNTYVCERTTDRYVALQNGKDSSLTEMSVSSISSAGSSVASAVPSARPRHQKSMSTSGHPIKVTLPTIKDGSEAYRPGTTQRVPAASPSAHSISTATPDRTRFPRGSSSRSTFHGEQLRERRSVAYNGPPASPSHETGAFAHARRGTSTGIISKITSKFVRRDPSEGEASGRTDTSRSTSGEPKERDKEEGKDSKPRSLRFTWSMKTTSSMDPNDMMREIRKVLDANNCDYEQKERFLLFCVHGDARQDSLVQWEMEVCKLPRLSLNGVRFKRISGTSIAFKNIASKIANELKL
Chain of Mitogen-activated protein kinase 14 (Homo sapiens) (Q16539 whole entry): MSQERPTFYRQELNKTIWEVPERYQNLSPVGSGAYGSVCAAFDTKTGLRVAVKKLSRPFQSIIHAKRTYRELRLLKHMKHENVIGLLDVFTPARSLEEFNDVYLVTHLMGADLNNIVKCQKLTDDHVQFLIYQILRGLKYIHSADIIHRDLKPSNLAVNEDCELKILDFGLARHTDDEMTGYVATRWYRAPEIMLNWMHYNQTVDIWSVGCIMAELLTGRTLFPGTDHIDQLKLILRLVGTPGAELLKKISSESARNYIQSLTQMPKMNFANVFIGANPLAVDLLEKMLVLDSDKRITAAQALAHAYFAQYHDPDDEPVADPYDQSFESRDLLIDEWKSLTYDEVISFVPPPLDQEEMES
Chain of Vascular endothelial growth factor receptor 1 (Homo sapiens) (P17948 whole entry): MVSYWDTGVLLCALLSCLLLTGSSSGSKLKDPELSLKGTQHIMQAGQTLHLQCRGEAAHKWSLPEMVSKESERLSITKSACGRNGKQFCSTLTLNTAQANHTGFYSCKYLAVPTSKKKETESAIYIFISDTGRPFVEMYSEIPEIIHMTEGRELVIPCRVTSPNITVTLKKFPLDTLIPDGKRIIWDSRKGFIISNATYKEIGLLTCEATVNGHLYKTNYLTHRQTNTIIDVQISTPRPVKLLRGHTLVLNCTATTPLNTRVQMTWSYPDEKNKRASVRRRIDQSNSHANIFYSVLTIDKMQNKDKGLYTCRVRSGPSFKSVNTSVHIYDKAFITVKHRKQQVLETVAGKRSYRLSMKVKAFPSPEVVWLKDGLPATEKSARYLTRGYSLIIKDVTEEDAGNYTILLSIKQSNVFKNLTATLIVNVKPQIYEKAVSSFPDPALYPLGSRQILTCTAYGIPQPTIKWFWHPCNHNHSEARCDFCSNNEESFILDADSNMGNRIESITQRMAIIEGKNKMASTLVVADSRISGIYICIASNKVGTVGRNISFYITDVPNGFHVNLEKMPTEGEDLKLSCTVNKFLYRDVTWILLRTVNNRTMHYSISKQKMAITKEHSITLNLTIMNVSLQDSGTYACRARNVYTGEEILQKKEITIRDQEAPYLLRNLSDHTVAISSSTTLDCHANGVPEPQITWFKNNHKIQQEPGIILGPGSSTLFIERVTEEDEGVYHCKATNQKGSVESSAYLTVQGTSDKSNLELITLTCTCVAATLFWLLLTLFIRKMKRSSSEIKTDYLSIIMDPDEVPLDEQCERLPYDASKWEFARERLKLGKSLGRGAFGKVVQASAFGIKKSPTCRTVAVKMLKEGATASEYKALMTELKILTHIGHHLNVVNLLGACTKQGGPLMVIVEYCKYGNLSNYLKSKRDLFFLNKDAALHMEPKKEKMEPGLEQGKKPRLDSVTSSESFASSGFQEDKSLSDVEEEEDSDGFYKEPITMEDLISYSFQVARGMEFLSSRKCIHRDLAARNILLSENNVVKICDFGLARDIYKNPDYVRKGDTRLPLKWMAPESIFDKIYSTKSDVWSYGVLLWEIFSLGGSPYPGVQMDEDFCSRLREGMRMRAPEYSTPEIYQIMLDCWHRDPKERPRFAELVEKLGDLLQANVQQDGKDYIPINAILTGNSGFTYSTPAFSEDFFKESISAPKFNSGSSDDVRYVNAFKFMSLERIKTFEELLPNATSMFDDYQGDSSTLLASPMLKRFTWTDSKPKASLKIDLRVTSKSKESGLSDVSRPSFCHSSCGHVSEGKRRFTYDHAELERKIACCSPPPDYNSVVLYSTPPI
Chain of RAF proto-oncogene serine/threonine-protein kinase (Homo sapiens) (P04049 whole entry): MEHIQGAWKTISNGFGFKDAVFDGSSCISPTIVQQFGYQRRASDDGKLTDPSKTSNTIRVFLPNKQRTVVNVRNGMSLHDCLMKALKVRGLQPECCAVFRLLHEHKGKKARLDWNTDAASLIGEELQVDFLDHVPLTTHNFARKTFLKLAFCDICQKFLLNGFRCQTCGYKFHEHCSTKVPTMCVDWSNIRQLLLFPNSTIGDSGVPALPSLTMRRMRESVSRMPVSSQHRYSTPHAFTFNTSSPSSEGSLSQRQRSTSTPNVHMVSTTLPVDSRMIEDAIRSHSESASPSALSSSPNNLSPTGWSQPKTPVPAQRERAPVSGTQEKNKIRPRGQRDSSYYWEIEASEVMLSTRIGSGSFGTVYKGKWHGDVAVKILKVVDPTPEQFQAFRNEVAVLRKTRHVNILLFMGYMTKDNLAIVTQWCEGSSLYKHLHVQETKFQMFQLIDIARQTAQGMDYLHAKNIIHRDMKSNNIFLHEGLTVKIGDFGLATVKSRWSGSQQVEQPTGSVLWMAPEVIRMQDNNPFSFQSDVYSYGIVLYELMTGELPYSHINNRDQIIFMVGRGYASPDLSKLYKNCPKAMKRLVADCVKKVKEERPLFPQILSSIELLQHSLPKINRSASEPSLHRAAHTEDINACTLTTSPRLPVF
Chain of Myosin light chain kinase family member 4 (Homo sapiens) (Q86YV6 whole entry): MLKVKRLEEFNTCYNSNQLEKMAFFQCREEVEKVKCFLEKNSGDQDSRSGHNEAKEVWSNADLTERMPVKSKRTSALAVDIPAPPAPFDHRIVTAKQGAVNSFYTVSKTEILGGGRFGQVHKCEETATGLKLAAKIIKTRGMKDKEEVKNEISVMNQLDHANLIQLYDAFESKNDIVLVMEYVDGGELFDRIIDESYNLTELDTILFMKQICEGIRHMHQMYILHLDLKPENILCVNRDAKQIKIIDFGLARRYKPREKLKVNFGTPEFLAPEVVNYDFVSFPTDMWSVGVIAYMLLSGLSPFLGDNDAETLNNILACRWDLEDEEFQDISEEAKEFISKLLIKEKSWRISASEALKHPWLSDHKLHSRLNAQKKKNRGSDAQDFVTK
Chain of Serine/threonine-protein kinase LATS1 (Homo sapiens) (O95835 whole entry): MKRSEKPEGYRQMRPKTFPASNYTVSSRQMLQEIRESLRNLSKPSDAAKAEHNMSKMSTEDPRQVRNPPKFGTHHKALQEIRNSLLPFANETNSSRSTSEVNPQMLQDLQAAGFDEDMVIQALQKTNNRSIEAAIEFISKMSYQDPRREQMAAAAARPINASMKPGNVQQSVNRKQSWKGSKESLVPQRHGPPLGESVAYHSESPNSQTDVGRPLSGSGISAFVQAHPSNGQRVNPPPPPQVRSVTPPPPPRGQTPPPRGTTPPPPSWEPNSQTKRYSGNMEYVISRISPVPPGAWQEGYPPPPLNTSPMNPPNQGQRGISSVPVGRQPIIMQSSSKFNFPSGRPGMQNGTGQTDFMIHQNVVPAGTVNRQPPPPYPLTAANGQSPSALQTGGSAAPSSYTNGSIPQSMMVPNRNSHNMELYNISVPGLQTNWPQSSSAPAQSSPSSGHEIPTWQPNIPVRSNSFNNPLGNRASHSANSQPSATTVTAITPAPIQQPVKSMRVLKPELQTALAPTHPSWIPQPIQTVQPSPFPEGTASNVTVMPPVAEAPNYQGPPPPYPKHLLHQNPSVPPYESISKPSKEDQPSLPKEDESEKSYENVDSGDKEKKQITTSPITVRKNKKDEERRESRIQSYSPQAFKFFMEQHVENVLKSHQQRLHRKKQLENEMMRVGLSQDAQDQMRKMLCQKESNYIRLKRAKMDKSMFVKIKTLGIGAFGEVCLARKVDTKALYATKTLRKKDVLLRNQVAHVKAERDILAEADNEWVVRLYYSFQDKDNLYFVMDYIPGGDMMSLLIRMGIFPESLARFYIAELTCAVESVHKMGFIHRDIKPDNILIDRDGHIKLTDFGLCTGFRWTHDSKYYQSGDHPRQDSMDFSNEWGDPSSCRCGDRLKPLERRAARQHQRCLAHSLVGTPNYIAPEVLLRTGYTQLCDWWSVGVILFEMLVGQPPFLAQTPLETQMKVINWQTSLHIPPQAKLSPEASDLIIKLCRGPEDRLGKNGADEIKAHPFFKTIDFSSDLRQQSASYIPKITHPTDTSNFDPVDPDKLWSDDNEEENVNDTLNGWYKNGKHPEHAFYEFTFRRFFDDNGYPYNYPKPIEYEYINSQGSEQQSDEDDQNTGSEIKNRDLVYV

Consider `Nc1ccccc1Nc1ccc2c(c1)CCc1ccccc1C2=O`, for which the Activity is 86% in [1]; 85% in test [2]; 85% in [3]; 88% in test [4]; 93% in test [5]; 0.2% in test [6]. In addition, the Activity in [7] turned out to be 87%; in test [8], 96%; in test [9] it was 97%.
Turning to `O=C1c2ccc(Nc3ccc(F)cc3F)cc2CCc2ccc(OC[C@H](O)CO)cc21` [Skepinone-L], the Activity was 94% in [1]; 82% in test [2]; 100% in [3]; 93% in test [4]; 100% in test [5]; 0.2% in test [6]. Besides, the Activity is 96% in test [7], 90% in [8] and 100% in test [9].
